# Results: PMC4608580, “Synthesis and Evaluation of Biological Activity of Antimicrobial – Pro-Proliferative Peptide Conjugates” (PLoS ONE, 2015)
# Key:
# [1] = Circular dichroism, alpha-helical content; format: physicochemical; settings: CD, mean residue ellipticity at 222 nm (Eq 1), peptide 0.4 mg/ml in 30 mM SDS, room temperature
# Procedure: Circullar dichroism spectra of analyzed compounds were recorded on a Jasco J-815 spectropolarimeter using a quartz cell of 1 mm path length between 195–260 nm at room temperature. Peptides at concentration of 0.4 mg/ml were dissolved in water or 30 mM SDS solution. SDS micelle system was used as the simplified model of negatively charged lipid membrane. On the basis of the obtained results the alpha-helical content was determined from the mean residue ellipticities at 222 nm according to Eq 1: %Helix=([θ]obs/([θ]helixx(1−2.57/l))x100, (1) where [θ] obs is the experimentally observed mean-residue ellipticity at 222 nm, [θ]helix is the theoretical ellipticity of peptide of infinite length with a 100% helix population, taken as -39 500 deg·cm^2/dmol, and l is the number of peptide bonds.
# Circular dichroism method was applied to obtain a basic information about the secondary structure of the synthesized compounds (with the exception of CAR, CAR3, DAL, CTEN2) in two chemical environments, water and 30 mM SDS. As expected, all the tested compounds in water adopted a random-coil structure, while in the presence of 30 mM SDS most of them formed α-helices with characteristic negative minima around 208 and 220 nm. […] The examples of CD spectra for selected peptides could be seen in supporting information (Figure A in S1 File). On the basis of the experimentally obtained values of the mean residue ellipticities of peptides at 222 nm their alpha-helical content was calculated according to the Eq 1 (Table 1).
# [2] = tested on: human primary dermal fibroblasts; assay: Cell proliferation assay (MTT); format: cell-based; settings: 72 h, serum-free DMEM, peptide at 25 and 50 μg/mL
# Procedure: Biopsies of healthy human skin were obtained aseptically from three donors (47–69 years old) undergoing circumcision after obtaining their written informed consent. All the procedures were approved by the Ethics Committee of Medical University of Gdansk (NKEBN/483/2011. Issued: 2011-12-19). The samples were washed several times with sterile PBS (Sigma-Aldrich, Germany) containing antibiotic (200 U/mL penicillin and 200 μg/mL streptomycin), after which, the subcutaneous tissue was cut off with a sharp blade. The resulting sheets were cut into small fragments, washed two times with sterile PBS and treated with 6 U/mL dispase II (BD, USA) overnight at 4°C to separate epidermis and dermis. The dermis was then digested with 1.0 mg/mL collagenase type I (from Clostridium histolyticum Sigma-Aldrich, Germany) for 2 hours at 37°C to isolate fibroblasts. Cells were used between the 2nd and 4th passage in all experiments.
# In our study two kind of cells were used: immortalized human HaCaT keratinocytes (DKFZ Heidelberg, Germany) and primary dermal fibroblasts obtained from 3 healthy donors. Both types of the used cell lines were grown in Dulbecco's modified Eagle's medium (DMEM) (Sigma–Aldrich, Germany), that contained […] of glucose, […] of L-glutamine, sodium pyruvate and sodium bicarbonate. Additionally, medium was supplemented with 10% of FCS (fetal calf serum, Sigma-Aldrich, Germany), 100 U/mL of penicillin and 100 μg/mL streptomycin (Sigma-Aldrich, Germany). The cells were grown in culture dishes (BD, USA) under standard conditions in a humidified atmosphere with 5% CO2 at 37°C and medium was changed every 2 days.
# The fibroblasts and keratinocytes were seeded at density of 4500 and 6000 cells per well, respectively, into 96-well plates suspended in a medium supplemented with 10% of FCS. After 24 h the media were exchanged with serum- and antibiotic- free DMEM and tested peptides dissolved in PBS were added yielding final concentration ranging from 1 to 50 μg/mL. Cells were incubated for the next 24 hours, when the medium was exchanged again and fresh portion of peptides (used at the same concentrations as previously) was added. Incubation was continued for the next 48 hours (the overall time of cell exposition to peptide was 72 h). […] After 15 min when the purple crystals of formazan were fully solubilized, absorbance was read at 570 nm with a plate reader. […]
# Fig 1 Pro-proliferative activity of the tested peptides towards human keratinocytes (A) and fibroblasts (B). […] The data represents results of MTT assay expressed as the percentage of the cell viability in comparison to their control sample (cells incubated in serum-free DMEM without tested peptides), additional positive control corresponds to the cells incubated in the presence of 10% FCS. […]
Substance,α-helicity [1] [%],"Effect on fibroblast viability (MTT), in words [2]"
"YAGFLR-PEG-IKKILSKIKKLL-NH2 [DAL-PEG-DK5, conjugate of dalargin and DK5 joined by PEG-linker]",35,lowest cell viability
"YAGFLR-PEG-IKKILSKIKKLLK-NH2 [DAL-PEG-LK6, conjugate of dalargin and LK6 joined by PEG-linker]",25,lowest cell viability
"IKKILSKIKKLL-NH2 [DK5, Lys-rich derivative of amphibian AMP temporin-1CEb, …-NH2, reference compound]",29,
